These results are taken from patent US9340554B2, “IRAK inhibitors and uses thereof” (Nimbus Iris, Inc., priority 2011, dated 2016).

The experiment deals with T1, IRAK4 (Homo sapiens, UniProt Q9NWZ3).
T1 construct: purchased CARNA Bioscience 09-145
T1 sequence (Q9NWZ3 1-460): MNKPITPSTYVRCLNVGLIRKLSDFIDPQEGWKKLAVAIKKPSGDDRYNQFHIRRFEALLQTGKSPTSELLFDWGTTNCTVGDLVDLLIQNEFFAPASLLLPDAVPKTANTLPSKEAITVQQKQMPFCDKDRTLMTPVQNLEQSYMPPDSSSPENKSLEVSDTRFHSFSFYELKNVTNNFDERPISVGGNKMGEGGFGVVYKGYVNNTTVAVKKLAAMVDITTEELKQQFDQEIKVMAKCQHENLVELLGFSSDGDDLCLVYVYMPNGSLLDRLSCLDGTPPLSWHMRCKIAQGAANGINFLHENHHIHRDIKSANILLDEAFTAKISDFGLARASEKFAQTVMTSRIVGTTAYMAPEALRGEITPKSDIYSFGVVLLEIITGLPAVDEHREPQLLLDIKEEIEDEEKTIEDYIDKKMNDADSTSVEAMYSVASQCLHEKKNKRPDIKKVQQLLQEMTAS
In words: IRAK-4 activity inhibition assay (Caliper, Peptide 8, 37 μM ATP). It counts as biochemical. Particulars: 3.5 nM IRAK4, 1.5 μM Peptide 8, 37 μM ATP, 28° C. 40 minutes; read-out: IRAK-4 activity inhibition IC50. As to the method: A 1× kinase base buffer was prepared from 50 mM HEPES, pH 7.5 and 0.0015% Brij-35. A stop buffer was prepared from 100 mM HEPES, pH 7.5, 0.015% Brij-35, 0.2% Coating Reagent #3, and 50 mM EDTA.
Test compound was diluted to 50× of the final desired highest inhibitor concentration in reaction by 100% DMSO. 100 ul of this compound dilution was transferred to a well in a 96-well plate.
Test compound was serially diluted by transferring 30 μl to 60 μl of 100% DMSO in the next well and so forth for a total of 10 concentrations. 100 μl of 100% DMSO was added to two empty wells for no compound control and no enzyme control in the same 96-well plate.
A new 96-well plate was marked as intermediate plate. 5 μl of compound serial dilution was transferred from source plate to the corresponding wells of the intermediate plate. 45 μl of 1× kinase base buffer (KB buffer) was added to each well of the intermediate plate. The intermediate plate was placed for 10 min on a shaker.
5 μl of each well was transferred from the 96-well intermediate plate to a 384-well plate in duplicates. […] A2 of the 96-well plate is transferred to A3 and A4 of the 384-well plate, and so on.
IRAK4 and DTT in 1× kinase base buffer was added.
Assay plate already contained 5 μl of compound in 10% DMSO. Added 10 μl of 2.5× enzyme solution to each well of the 384-well assay plate, except no enzyme control wells. […] Added 10 μl of 1× kinase base buffer to no enzyme control wells in the assay plate. Incubated at room temperature for 10 min.
Added 10 μl of 2.5× peptide solution to each well of the 384-well assay plate. […] Incubated at 28° C. for 40 minutes. Added 25 μl of stop buffer to stop reaction. Collected data on Caliper.
Copied conversion % data from Caliper program. Converted conversion % values to percent inhibition values. Percent inhibition=(max−conversion %)/(max−min)*100, where “max” means the conversion % of DMSO control and “min” means the conversion % of no enzyme control.
The compound numbers correspond to the compound numbers in Table 1. […] “NA” stands for “not assayed.”

As for `CN(Cc1ccncc1F)[C@H]1CC[C@H](Nc2ncnc3sc4c(c23)CCC4)CC1` [Compound I-111, 1-N-[(3-fluoropyridin-4-yl)methyl]-1-N-methyl-4-N-[7-thia-9,11-diazatricyclo[6.4.0.0^[2,6]]dodeca-1(12),2(6),8,10-tetraen-12-yl]cyclohexane-1,4-diamine], the IC50 was less than 5 µM.

For `O=C(CN[C@H]1CC[C@H](Oc2ncnc3sc4c(c23)CCC4)CC1)N1CCCC1` [Compound I-135, trans-1-(pyrrolidin-1-yl)-2-[(4-[7-thia-9,11-diazatricyclo[6.4.0.0[2,6]]dodeca-1(8),2(6),9,11-tetraen-12-yloxy]cyclohexyl)amino]ethan-1-one], the IC50 is less than 5 µM.

In the case of `CCC1CCc2c(sc3ncnc(N4CCC(C(=O)NC)CC4)c23)C1` (stereo not drawn) [Compound I-13], the IC50 fell in the range of 5 to 20 µM.

`CC(C)NC(=O)CN(C)[C@H]1CC[C@H](Nc2ncnc3sc4c(c23)CCC4)CC1` [Compound I-125, 2-(((1r,4r)-4-((6,7-dihydro-5H-cyclopenta[4,5]thieno[2,3-d]pyrimidin-4-yl)amino)cyclohexyl)(methyl)amino)-N-isopropylacetamide]: the half-maximal inhibitory concentration (IC50) was less than 5 µM.

As to `CN(CC(=O)Nc1cccnc1)[C@H]1CC[C@H](Nc2ncnc3sc4c(c23)CCC4)CC1` [Compound I-126, 2-(((1r,4r)-4-((6,7-dihydro-5H-cyclopenta[4,5]thieno[2,3-d]pyrimidin-4-yl)amino)cyclohexyl)(methyl)amino)-N-(pyridin-3-yl)acetamide], the IC50 is less than 5 µM.

Regarding `CC1CCc2sc3ncnc(N[C@H]4CC[C@H](O)CC4)c3c2C1` (relative stereo) [Compound I-37, trans-4-((6-methyl-5,6,7,8-tetrahydrobenzo[4,5]thieno[2,3-d]pyrimidin-4-yl)amino)cyclohexanol], the concentration for half-maximal inhibition (IC50) lay in the range of 5 to 20 µM.

For `CC1CCc2sc3ncnc(NC4CCCC(O)C4)c3c2C1` (mixture of isomers) [Compound I-35, 3-((6-methyl-5,6,7,8-tetrahydrobenzo[4,5]thieno[2,3-d]pyrimidin-4-yl)amino)cyclohexanol], the IC50 fell in the range of 5 to 20 µM.

As to `COc1ccc(OCCN2CCN(c3ncnc4sc5c(c34)CCCC5)CC2)cc1` [Compound I-27], the IC50 fell in the range of 5 to 20 µM.

As to `CN(Cc1cccc(CO)c1)[C@H]1CC[C@H](Nc2ncnc3sc4c(c23)CCC4)CC1` [Compound I-165, [3-([methyl[4-([7-thia-9,11-diazatricyclo[6.4.0.0^[2,6]]dodeca-1(8),2(6),9,11-tetraen-12-yl]amino)cyclohexyl]amino]methyl)phenyl]methanol], the IC50 is less than 5 µM.

As for `O=C(NCC(F)(F)F)C1CCN(c2ncnc3sc4c(c23)CCC4)CC1` [Compound I-33], the IC50 lay in the range of 20 to 50 µM.

In the case of `O[C@@H]1CCC[C@H](Nc2ncnc3sc4c(c23)CCC4)C1` (relative stereo) [Compound I-21, cis-3-((6,7-dihydro-5H-cyclopenta[4,5]thieno[2,3-d]pyrimidin-4-yl)amino)cyclohexanol], the 50% inhibitory concentration (IC50) is 5 to 20 µM.

In the case of `c1nc(NCC2CCNCC2)c2c3c(sc2n1)CCC3` [Compound I-59], the 50% inhibitory concentration (IC50) was in the range of 20 to 50 µM.

For `CC1CCc2c(sc3ncnc(N4CCC(C(N)=O)CC4)c23)C1` (stereo not drawn) [Compound I-3], the IC50 is 5 to 20 µM.

For `O=C(CN(CC(=O)N1CCCC1)[C@H]1CC[C@H](Oc2ncnc3sc4c(c23)CCC4)CC1)N1CCCC1` [Compound I-137, trans-2-[[2-oxo-2-(pyrrolidin-1-yl)ethyl](4-[7-thia-9,11-diazatricyclo[6.4.0.0[2,6]]dodeca-1(8),2(6),9,11-tetraen-12-yloxy]cyclohexyl)amino]-1-(pyrrolidin-1-yl)ethan-1-one], the IC50 lay in the range of 5 to 20 µM.

For `CCN(CC)[C@H]1CC[C@H](Nc2ncnc3sc4c(c23)CCC4)CC1` [Compound I-72, trans-N^1-(6,7-dihydro-5H-cyclopenta[4,5]thieno[2,3-d]pyrimidin-4-yl)-N^4,N^4-diethylcyclohexane-1,4-diamine], the IC50 was less than 5 µM.

For the compound `CC1(C)CCc2sc3ncnc(N4CCC(C(N)=O)CC4)c3c2C1` [Compound I-46], the half-maximal inhibitory concentration (IC50) is 20 to 50 µM.

For the compound `CCC1CCc2c(sc3ncnc(N[C@H]4CC[C@H](N(C)C)CC4)c23)C1` (stereo partly drawn) [Compound I-55, trans-N^1-(7-ethyl-5,6,7,8-tetrahydrobenzo[4,5]thieno[2,3-d]pyrimidin-4-yl)-N^4,N^4-dimethylcyclohexane-1,4-diamine], the IC50 is less than 5 µM.

Regarding `CCN[C@H]1CC[C@H](Nc2ncnc3sc4c(c23)CCC4)CC1` [Compound I-70], the IC50 is less than 5 µM.

On to `CCN(Cc1ccccc1)[C@H]1CC[C@H](Oc2ncnc3sc4c(c23)CCC4)CC1` [Compound I-117, (1r,4r)-N-benzyl-4-((6,7-dihydro-5H-cyclopenta[4,5]thieno[2,3-d]pyrimidin-4-yl)oxy)-N-ethylcyclohexanamine], for which the concentration for half-maximal inhibition (IC50) was less than 5 µM.

Take `CN(Cc1ccncc1)[C@H]1CC[C@H](Nc2ncnc3sc4c(c23)CCC4)CC1` [Compound I-162]: the IC50 is less than 5 µM.

Turning to `CN[C@H]1CC[C@H](Nc2ncnc3sc4c(c23)CCC4)CC1` [Compound I-34, trans-N^1-(6,7-dihydro-5H-cyclopenta[4,5]thieno[2,3-d]pyrimidin-4-yl)-N^4-methylcyclohexane-1,4-diamine], the IC50 was less than 5 µM.

As for `CN(CCc1ccccc1Cl)[C@H]1CC[C@H](Nc2ncnc3sc4c(c23)CCC4)CC1` [Compound I-112, 1-N-[2-(2-chlorophenyl)ethyl]-1-N-methyl-4-N-[7-thia-9,11-diazatricyclo[6.4.0.0^[2,6]]dodeca-1(12),2(6),8,10-tetraen-12-yl]cyclohexane-1,4-diamine], the IC50 was less than 5 µM.

For the compound `CN(Cc1ccccc1)[C@H]1CC[C@H](Nc2ncnc3sc4c(c23)CCC4)CC1` [Compound I-151, (1r,4r)-N1-benzyl-N4-(6,7-dihydro-5H-cyclopenta[4,5]thieno[2,3-d]pyrimidin-4-yl)-N1-methylcyclohexane-1,4-diamine], the IC50 is less than 5 µM.

On to `CN(C)C(=O)CN(C)[C@H]1CC[C@H](Nc2ncnc3sc4c(c23)CCC4)CC1` [Compound I-131, N,N-dimethyl-2-[methyl[4-([7-thia-9,11-diazatricyclo[6.4.0.0[2,6]]dodeca-1(12),2(6),8,10-tetraen-12-yl]amino)cyclohexyl]amino]acetamide], for which the half-maximal inhibitory concentration (IC50) is less than 5 µM.

On to `CN[C@H]1CC[C@H](Nc2ncnc3sc4c(c23)CC(C)CC4)CC1` (stereo partly drawn) [Compound I-52, trans-N^1-methyl-N4-(6-methyl-5,6,7,8-tetrahydrobenzo[4,5]thieno[2,3-d]pyrimidin-4-yl)cyclohexane-1,4-diamine], for which the IC50 is less than 5 µM.

On to `O=C(CN[C@H]1CC[C@H](Nc2ncnc3sc4c(c23)CCC4)CC1)N1CCCC1` [Compound I-134, trans-1-(pyrrolidin-1-yl)-2-[[4-([7-thia-9,11-diazatricyclo[6.4.0.0[2,6]]dodeca-1(8),2(6),9,11-tetraen-12-yl]amino)cyclohexyl]amino]ethan-1-one], for which the 50% inhibitory concentration (IC50) was less than 5 µM.

With `CCC(C)c1ccc(S(=O)(=O)N2CCN(c3ncnc4sc5c(c34)CCC(C)C5)CC2)cc1` (stereo not drawn) [Compound I-24], the half-maximal inhibitory concentration (IC50) was more than 50 µM.

With `C[C@@H]1CCc2sc3ncnc(N[C@H]4CC[C@H](N)CC4)c3c2C1` [Compound I-48, trans-N^1-((R)-6-methyl-5,6,7,8-tetrahydrobenzo[4,5]thieno[2,3-d]pyrimidin-4-yl)cyclohexane-1,4-diamine], the IC50 is less than 5 µM.

In the case of `CN(C)CC1CCN(c2ncnc3sc4c(c23)CCC4)CC1` [Compound I-69], the half-inhibitory concentration (IC50) is more than 50 µM.

In the case of `c1nc(N[C@H]2CC[C@H](N3CCC3)CC2)c2c3c(sc2n1)CCC3` [Compound I-158, N-[4-(azetidin-1-yl)cyclohexyl]-7-thia-9,11-diazatricyclo[6.4.0.0^[2,6]]dodeca-1(8),2(6),9,11-tetraen-12-amine], the IC50 was less than 5 µM.
